The target of data set [1] is T1, TRβ (Homo sapiens, UniProt P10828).
T1 sequence (P10828 1-461): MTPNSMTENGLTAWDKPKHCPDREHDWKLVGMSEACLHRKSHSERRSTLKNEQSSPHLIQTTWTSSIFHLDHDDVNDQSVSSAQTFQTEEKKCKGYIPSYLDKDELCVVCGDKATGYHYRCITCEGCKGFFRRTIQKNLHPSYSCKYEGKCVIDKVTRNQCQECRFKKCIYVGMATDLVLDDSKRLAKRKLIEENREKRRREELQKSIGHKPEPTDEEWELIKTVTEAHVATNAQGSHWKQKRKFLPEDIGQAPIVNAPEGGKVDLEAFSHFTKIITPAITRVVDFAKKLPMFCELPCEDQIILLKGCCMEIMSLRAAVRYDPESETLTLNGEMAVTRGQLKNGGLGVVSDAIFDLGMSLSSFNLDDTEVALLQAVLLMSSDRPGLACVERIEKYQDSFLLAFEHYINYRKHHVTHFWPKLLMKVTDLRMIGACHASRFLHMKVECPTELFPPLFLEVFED
Briefly: ΔSV-CAT reporter cotransfection assay in CV-1 cells with TRβ expression plasmid, ±T3. It is filed as cell-based. Set-up: expressed in transfected cells; host or cells: CV-1 (monkey kidney). The settings on record: TRβ expression vector. An excerpt:
Receptor expression plasmids used in the following cotransfection assays have been described previously (pRShTRβ [see Thompson, et al., Proc. Natl. Acad. Sci. U.S.A. 86: 3494-3498 (1989)]; pRShRARα [see Giguere, et al., Nature 330: 624-629 (1987)]; pRShRARβ and pRshRARγ [see Ishikawa, et al., Mol. Endocrinol, 4: 837-844 (1990)]; and pRShVDR, [Schule, et al., Cell 61: 497-504 (1990)]. A basal reporter plasmid ΔSV-CAT was constructed by replacing the TK promoter in TK-CAT [Damm, et al., Nature 339: 593-597 (1989)] with the SphI-HindIII fragment of the SV40 early promoter. All of the recombinant CAT reporter plasmids used herein harbor a single copy of the indicated oligonucleotides at the unique HindIII site upstream of the SV40 promoter. […] To improve production of receptor proteins in COS cells, a new eukaryotic expression vector pCMX was prepared by modifying the plasmid CDM8 [Seed, B., Nature 329: 840-842 (1987)]. The CDM8 was cut with MluI and StuI in order to release the DNA fragment encoding the CMV/T7 promoter, SV40 small t intron/poly A signal, polyoma virus enhancer/origin, and SV40 enhancer/origin. The resulting fragment was ligated to a larger fragment of PvuII-digested PUC19. An internal deletion was introduced between unique BamHI and BclI sites present in the DCM8 portion. The stuffer sequence flanked by XbaI sites was replaced with a synthetic polylinker coding for 5′-KpnI/Asp718-EcoRV-BamHI -MscI-NheI-3′, followed by a stretch of 5′-[…]-3′ (SEQ ID NO:48) which can function as a universal termination signal for protein translation. The coding sequence of the luciferase [de Wet, et al., Mol. Cell. Biol. 7: 725-737 (1987)] and human TRβ, RARα, and VDR was placed in the polylinker region of the pCMX, generating pCMX-LUC, Pcmx-Htrβ, pCMX-hRARα, and pCMX-hVDR, respectively. The translation start site of the RARα was modified to […] by attaching the synthetic linker encoding a consensus translation start signal [Hollenberg, et al., Cell 55: 899-906 (1988)].
(§1) For cotransfection assays, a monkey kidney cell line CV-1 was kept in Dulbecco's modified Eagle's medium (DMEM) supplemented with 10% charcoal-resin double split calf bovine serum. Transfections were performed via calcium-phosphate precipitation method as described by Umesono, et al. in Cell 57: 1139-1146 (1989), with 0.5 μg of a pRS receptor expression plasmid, 1.0 μg of a reporter CAT plasmid, 5 μg of pRAS-βGAL [Umesono, et al., Cell 57: 1139-1146 (1989)] as an internal control, and 8.5 μg of carrier plasmid pUC19. The cells were transfected for 8 hours; after washing the DNA precipitates, the cells were then incubated for an additional 36 hours with or without the ligand (T3, 100 nM; RA, 1 μM; 1,25-(OH)2 vitamin D3, 100 nM). Cell extracts were prepared for βGAL and CAT assays, as described by Umesono, et al., supra. Transfection of F9 teratocarcinoma cells was carried out employing a similar method except the cells were incubated for 12 hours in the presence of the DNA precipitates, and the RA was added at 1 μM for another 24 hours before harvesting the cells. 2, 5, and 4 μg of the reporter, pRAS-βGAL, and pUC19 were used, respectively.
Target hormone response elements described in FIG. 3 were synthesized as double-stranded oligonucleotides with an overhanging tetranucleotide (5′-agct-3′) at both ends. A single copy of these oligonucleotides was cloned at the unique HindIII site present in the basal promoter CAT construct ΔSV-CAT. Capitalized portions in the nucleotide sequences correspond to those found in the natural promoters except TREp and rGH21, which are synthetic. Bold letters indicate the “AGGTCA” motif and “X” denotes a nucleotide substitution from this motif.

Data set [2] concerns F9 teratocarcinoma stem cells. Briefly: CAT reporter transfection into RA responsive F9 teratocarcinoma stem cells. It is filed as cell-based, mouse. The settings on record: RA 1 μM, 24 hours; no transfected receptor. As to the method: as §1
Similarly, when the same set of reporters as in FIG. 4 were transfected into F9 cells, only MHC-R (5-nucleotide spacer) and TREp are potent RAREs. In contrast, its RARE antecedents (MHC-N, MHC+1, MHC-T) are inert.

Data set [3] deals with T1, TRβ. Briefly: Gel retardation DNA-binding assay with TRβ-expressing COS cell extracts. Set-up: expressed in transfected cells; host or cells: COS cells (whole-cell extract). The settings on record: for TRβ binding to labeled oligonucleotide probe: gel retardation, TRβ COS cell extract; for competition for TRβ binding to 32P-labeled MHC-N: 50-fold excess of unlabeled oligonucleotide, COS cell extracts. As to the method: For DNA binding assays, COS cells were cultured in DMEM with 10% calf bovine serum and transfected by the calcium phosphate method with 20 μg of the pCMX receptor expression plasmid for 6 hours followed by a glycerol shock. After incubating the transfected COS cells for another 48 hours, the cells were harvested to prepare extracts for the DNA binding assay, carried out as described by Damm et al., Nature 339: 593-597 (1989). The extracts were made in 20 mM HEPES (pH 7.4), 0.4 M KCl, 2 mM DTT and 20% glycerol. A similar method was employed to prepare a whole cell extract from F9 stem cells. For the binding, 5 μg (COS) or 10 μg (F9) of proteins was incubated on ice for 20 minutes, first in 20 mM HEPES, 80 mM KCl, 1 mM DTT, 0.1% NP40, 2.5 μg of poly dI/dC, and 10% glycerol (cold competitor oligonucleotides, when included, were added during this pre-incubation period). Then 40 fmole of ^32P-labeled oligonucleotide probe (1-2×10^5 cpm, prepared by filling-in reaction using Klenow polymerase in the presence of α-^32P-dCTP) was added to the reaction mixture, followed by incubation at room temperature for 30 minutes. The receptor-DNA complexes were resolved by electrophoresis through 5% polyacrylamide gel containing 5% glycerol at 6 V/cm at room temperature.
Oligonucleotides listed in FIG. 3 were used as a probe to test specific DNA-binding of the RARα and TRβ in a gel retardation assay.
Using the mobility shift assay, the DNA-binding capacity of extracts from COS cells expressing TRβ and RARα to these sequences was also tested.

On to “MHC-D: segment of the MHC sequence including an adjacent sequence; deletion from MHC-L (SEQ ID NO:13) (AGCTTGAGGTGACAGGAGGACAGCAGCT; DNA, backbone not given here; double-stranded DNA response element with agct overhangs, cloned into reporter)”, for which the “T3 responsiveness (in words)” value in the data set with TRβ [1] is reported as “recovery of the full response”.
With “MHC+1: MHC-N with half-site spacing increased by one nucleotide (SEQ ID NO:22) (AGCTGGAGGTGAACAGGAGGACAGCAAGCT; DNA, backbone not given here; double-stranded response element with agct overhangs, cloned into reporter plasmid)”, the “function as RARE in F9 cells” value in data set [2] is “inert”. Besides, the “competition for TRβ binding (mobility shift assay)” value with TRβ [3] (unlabeled competitor oligonucleotide, COS cells expressing TRβ) was “poor competitors”.
As to “rGH21: rat growth hormone gene sequence proposed as a candidate TRE (SEQ ID NO:20) (AGCTAGGTAAGATCAGGTAAGTAGCT; listed as DNA, chemistry not fully specified) [reference compound]”, the “T3 responsiveness (in words)” value with TRβ [1] is reported as “fails to confer T3-dependent transactivation”. Also, the “TRβ binding to labeled oligonucleotide probe” value with TRβ [3] is recorded as “binds very poorly”.
Regarding “M1: MHC-N with nucleotide substitutions in the proposed direct repeat motif (SEQ ID NO:15) (AGCTGGAAATGACAGGAGGACAGCAAGCT; DNA, backbone not given here; double-stranded DNA response element with agct overhangs, cloned into reporter)”, the “T3 responsiveness (in words)” value with TRβ [1] is listed as “completely silent to T3”. Besides, the “competition for TRβ binding to 32P-labeled MHC-N” value in the data set with TRβ [3] was “did not”.
As for “MHC-S: restricted region of MHC-L corresponding to the predicted palindrome (SEQ ID NO:12) (AGCTCTCTGGAGGTGACAGGAAGCT; listed as DNA, further chemistry not given here)”, in the data set with TRβ [1], the “T3 responsiveness (in words)” value is reported as “failed to confer T3 responsiveness”.
As for “M3: MHC-N with nucleotide substitutions in the proposed direct repeat motif (SEQ ID NO:17) (AGCTGGAGGTGACAGGAAAACAGCAAGCT; DNA, backbone not given here; double-stranded DNA response element with agct overhangs, cloned into reporter)”, the “T3 responsiveness (in words)” value with TRβ [1] is “completely silent to T3”. The “competition for TRβ binding to 32P-labeled MHC-N” value with TRβ [3] was “did not”.
As to “M2: MHC-N mutant with nucleotide substitutions in the presumed palindrome (SEQ ID NO:16) (AGCTGGAGGTGACGAAAGGACAGCAAGCT; DNA, backbone not given here; double-stranded DNA response element with agct overhangs, cloned into reporter)”, in the data set with TRβ [1], the “T3 responsiveness (in words)” value is “retains a T3 response though impaired”. The “competition for TRβ binding to 32P-labeled MHC-N” value with TRβ [3] is reported as “competed”.
Take “MLV-LTR: thyroid response element found in the murine Maloney Leukemia Virus LTR (SEQ ID NO:19) (DNA AGCTCAGGGTCATTTCAGGTCCTTGAAGCT; listed as DNA, chemistry not given here) [reference compound]”: the “T3 responsiveness (in words)” value with TRβ [1] was “confers T3 inducibility”. Besides, the “TRβ binding to labeled oligonucleotide probe” value with TRβ [3] is reported as “high affinity”.
As to “MHC-L: wild-type MHC sequence encoding a TRE in the MHC gene promoter (SEQ ID NO:11) (AGCTCCTTGGCTCTGGAGGTGACAGGAGGACAGCAGCT; DNA, backbone not given here; double-stranded response element with agct overhangs, cloned into reporter plasmid)”, the “T3 responsiveness (in words)” value with TRβ [1] was “responsive to T3”.

Values taken from patent US6492137B1, “Response element compositions and assays employing same” (The Salk Institute for Biological Studies, priority 1989, dated 2002).
